Each structure is given as a SMILES string. Activity calls are given as the source filed them.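 How the source made its calls: active means a tumor-causing dose value with its tumor site reported for any sex and species group of a rodent or other animal cancer study; inconclusive means only studies judged inadequate by the national testing program; inactive means tested in at least one study, none positive.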

This series can be described thus: DSSTox (CPDBAS) Carcinogenic Potency Database Summary SingleCellCall Results. To be noted: animal chronic carcinogenicity bioassays, CPDB summary call. The text has this:
The Carcinogenic Potency Database (CPDB) is a unique and widely used international resource of the results of over 6500 chronic, long-term animal cancer tests on over 1500 chemical substances. The CPDB provides easy access to the bioassay literature, with qualitative and quantitative analyses of both positive and negative experiments that have been published over the past 50 years in the general literature and by the National Cancer Institute/National Toxicology Program. The CPDB standardizes the diverse literature of cancer bioassays that vary widely in protocol, histopathological examination and nomenclature, and in the published author's choices of what information to provide in their papers. Results are reported in the CPDB for tests in rats, mice, hamsters, dogs, and nonhuman primates, and are based on the most positive result among all experiments for each sex-species. The DSSTox CPDBAS (all species) file incorporates data from the CPDB Summary Tables for the full list of over 1500 chemical substances tested in at least one species. A summary SingleCellCall, based on experimental bioassay results of one or more species, is provided for the entire DSSTox CPDBAS file (see Source URL).
An assignment of categorical carcinogenic activity based on minimal evidence for or against activity. […] Associated TD50 values and tumor site details for the relevant species/sex experiment supporting this overall CPDBAS SingleSiteCall are provided in the full CPDBAS DSSTox file (see Comment) and the corresponding CPDBAS Species Bioassay in PubChem.
As to `CC(=O)Nc1ccc(-c2ccc(F)cc2)cc1`, the result was active.
Take `ON=C1CCCC1`: the outcome is “active; inactive”.
As for `CCN(CC)C(=S)[S-].CCN(CC)C(=S)[S-].[Zn+2]`, the result was inactive.
On to `CCOC(=O)CC(SP(=S)(OC)OC)C(=O)OCC` (stereo not drawn), for which the outcome was inactive.
Take `Cc1ccc(S(=O)(=O)NC(=O)NN2CCCCCC2)cc1`: the result was inactive.
With `ClCC(Cl)(Cl)Cl` the entry was “active; inactive”.
As for `CN(C)c1ccc(C(=N)c2ccc(N(C)C)cc2)cc1`, the outcome was active.
As for `c1ccc(OCC2CO2)cc1` (stereo not drawn), the result was active.
Under `Cn1nc(CO)nc1NCCCOc1cccc(CN2CCCCC2)c1` stands “active”.
Turning to `O=NN(CC(=O)O)CC(=O)O`, the outcome was inactive.
Regarding `CN1C(=O)OC(C)(C)C1=O`, the result was inactive.
For `CN(N=O)C1=Nc2ccc(Cl)cc2C(c2ccccc2)=[N+]([O-])C1`, the outcome was inactive.
As to `OC[P+](CO)(CO)CO`, the outcome is “inactive; active”.
As to `Cc1cnc(NC(=O)C2=C(O)c3ccccc3S(=O)(=O)N2C)s1`, the outcome was inactive.
Regarding `Nc1ccc([N+](=O)[O-])cc1O`, the result was active.
Take `CC(C)(OCc1ccc(-c2ccc(Cl)cc2)cc1)C(=O)O`: the result was active.
With `CC(=O)OCC(=O)[C@@]12N=C(C)O[C@@H]1C[C@H]1[C@@H]3CCC4=CC(=O)C=C[C@]4(C)[C@H]3[C@@H](O)C[C@@]12C` the entry was “active”; with `Nc1ccc(Oc2ccc(N)c(N)c2)cc1`, “active”; with `CN(C)N=Nc1ccccc1`, “active”.
For `S=C1NCCN1`, the outcome was “active; inactive”.
Under `O=[N+]([O-])c1ccc(-c2cscn2)o1` stands “active”; under `COc1ccc([N+](=O)[O-])cc1N`, “active”.
With `ClCc1cccnc1` the entry was “active”; with `Nc1c(Cl)c(Cl)nc(C(=O)O)c1Cl`, “inactive”.
Take `C=C/C1=C/[C@H](C)[C@](C)(OC(C)=O)C(=O)OCC2=CC[N+]3(C)CC[C@@H](OC1=O)C23[O-]` (stereo partly drawn): the outcome is “active; inactive”.
For the compound `CN(C)C(=O)Nc1ccc(Cl)c(Cl)c1`, the result was inactive.
`c1ccc(NNc2ccccc2)cc1`: the result was active.
With `C[C@@H]1C/C=C/C=C/C=C/C=C/[C@H](O[C@@H]2O[C@H](C)[C@@H](O)[C@H](N)[C@@H]2O)C[C@@H]2O[C@](O)(C[C@@H](O)C[C@H]3O[C@@H]3/C=C/C(=O)O1)C[C@H](O)[C@H]2C(=O)O` the entry was “inactive”; with `O=C1CCCCC1`, “inactive”.
With `CN(C)CCN(Cc1cccs1)c1ccccc1`, the outcome was inactive.
Under `IC(I)I` stands “inactive”.
Turning to `CCOC(=O)N(C)N=O`, the result was active.
With `CC[C@]1(O)CC2CN(CCc3c([nH]c4ccccc34)[C@@](C(=O)OC)(c3cc4c(cc3OC)N(C)[C@H]3[C@@](O)(C(=O)OC)[C@H](OC(C)=O)[C@]5(CC)C=CCN6CC[C@]43[C@@H]65)C2)C1` (stereo partly drawn), the result was inactive.
`CC1(C)[C@H](C(=O)O[C@H](C#N)c2cccc(Oc3ccccc3)c2)[C@@H]1C=C(Br)Br`: the result was inactive.
In the case of `CC1(C)OC(=O)NC1=O`, the outcome was inactive.
As for `CCCC/C=N/N(C)C=O`, the result was active.
In the case of `CCCCCCc1ccc(O)cc1O`, the result was inactive.
For the compound `CC(=O)[O][Sn]([c]1ccccc1)([c]1ccccc1)[c]1ccccc1`, the outcome was “inactive; active”.
Take `O=c1ccc2ccccc2o1`: the outcome is “active; inactive”.
`CCOc1ccc(NC(C)=O)cc1N`: the result was active.
Under `C=Cc1cccc[n+]1[O-]` stands “inactive”; under `O=C(O)c1cccnc1`, “inactive”.
In the case of `CC(C)(C)c1cc(O)ccc1O`, the outcome was inactive.
